Measured values as given in patent US20150133341A1, “Intra-Operative Cancer Diagnosis Based on a Hyperpolarized Marker” (ALBEDA INNOVATIONS APS, priority 2012, published 2015).

What was measured:
[1] = test system: carboxyl esterase in lysed lymphocytes (B + T cells); assay: Carboxyl esterase activity in cell extract, 1H NMR; format: biochemical, human; conditions: 5 million lysed cells; for Metabolic conversion, Lymphocytes (B + T cells): 37° C.
Protocol: (§1) The hydrolysis of the substrates was investigated in cell extracts. To test substrates without isotope labelling for carboxyl esterase activity in a cellular background, a ^1H NMR assay was applied. Human breast cancer cells (MCF-7) and human prostate cancer cells (PC-3) were grown in RPMI medium with 10% FBS and antibiotics. They were at confluence harvested by trypsination and washed once with 5 ml PBS. They were spun down and resuspended in PBS to a concentration of 20 mill. cells/ml. The cells were hereafter sonicated on ice (50% amplitude, 1 min, 3 sec pulse). Human lymphocytes were purified from whole blood. Whole blood samples were drawn from healthy volunteer into heparinised venous blood collection tubes (Venosafe vacumtubes from Terumo). For each experiment, the blood was purified freshly: Three and a half 10 mL tubes of blood were pooled in each of four 50 mL Leucosep (Greiner) tubes prepared with 15 mL Histopaque 1077 (Sigma). The Leucosep tubes were spun for 15 min at 800× g at 24 C. The plasma was removed and the white blood cells were transferred to a 50 mL falcon tube by decanting and diluted 1:2 in PBS-Mg—Ca for a total volume of 50 mL. The cells were sedimented by centrifugation at 250×g for 60 min. Diluting with trypan blue and counting in hemocytometer determined the total number of lymphocytes before sedimentation. All cells were viable and the total number of cells in each cell batch was approx. 60 million. The lymphocytes were redissolved to a concentration of 20 million cells/ml. The cells were hereafter sonicated on ice (50% amplitude, 1 min, 3 sec pulse).
(§2) 250 μl sonicated cell suspension was mixed with 250 μl 400 mM phosphate buffer pH 7.3. This solution was transferred to a 5 mm NMR tube and warmed on a water bath to 37° C. The substrate was added (50 μl, 60 mM) and the tube turned for mixing before it was inserted into the spectrometer. The data was analyzed with MNOVA software and measured as percentage conversion of substrate calculated to account for the amount of substrate converted over 60 min; numbers are given in μmol/hour.

[2] = test system: carboxyl esterase in lysed prostate cancer cells (PC-3); assay: Carboxyl esterase activity in cell extract, 1H NMR; format: biochemical, human; conditions: for Metabolic conversion, Prostate cancer cells PC-3: 37° C.
Protocol: as §1, §2

[3] = test system: carboxyl esterase in lysed breast cancer cells (MCF-7); assay: Carboxyl esterase activity in cell extract, 1H NMR; format: biochemical, human; conditions: 5 million lysed cells; for Metabolic conversion, Breast cancer cells MCF-7: 37° C.
Protocol: as §1, §2

[4] = test system: isolated CE-1 enzyme from porcine liver; assay: CE-1 activity on short chain esters, 1H NMR; format: biochemical; conditions: 37° C.; for k: 26 μmol substrate, conversion over 60 min
Text: To measure almost exclusively the contribution of carboxyl esterase activity from the CE-2 isoform, human breast cancer cells (MCF-7) were employed. These cells are known from literature to express CE-2 but not to express CE-1 (Byun et al, 2008, Cancer letters 266:238-48). A group of esters was investigated as substrates for CE-1, which contained different structural features. These consisted of esters of un-substituted acids (examples are ethyl acetate, ethyl butyrate, methyl butyrate), esters of acids substituted on C2 (examples are ethyl lactate and ethyl 2-acetoxy propanoate), esters of acids substituted on C3 (examples are ethyl 3-hydroxy butyrate and ethyl 3-acetoxy butanoate), esters of ring closed acids (example ethyl pyroglutamate), esters of di-acids (examples are diethyl succinate and dimethyl succinate), esters of tri-acids (example triethyl citrate), ethyl esters of beta-keto acids (example ethyl acetoacetate). Also esters with large alcohol groups and small acid groups were investigated. In this group, the acid part of the molecule was always acetate and different structural properties of the alcohol were investigated. These consisted of esters of un-substituted alcohols (examples ethyl acetate and butyl acetate), esters of branched chain alcohols (examples t-butyl acetate, ethyl 3-acetoxy butanoate and 2-acetoxy propionate), esters of aromatic alcohols (example benzyl acetate), esters of diols (example ethyleneglycol diacetate), esters of triols (example triacetin). […] Similarly, a group of esters which contained different structural features was investigated as substrates for CE-2. CE-2 substrates are described in the literature to consist of a small acid group and a larger alcohol group. All included esters were acetate esters (i.e. esters of acetic acid) in the interest of keeping the acid moiety the smallest possible. The acetate esters measured for CE-2 activity were therefore the same as those measured in the second group of possible substrates for CE-1.
The CE-1 experiments were performed with commercially available CE-1 from porcine liver. Individual samples of the substrates were all prepared the following way: 26 μmol was weighted in an eppendorf tube. 550 μl deuterated phosphate buffer (200 mM, pH 7.5) was added and the substrate was brought into solution by whirl mixing. The solution was transferred to a 5 mm NMR tube and inserted in the spectrometer at 37° C. A reference experiment was acquired on the substrate solution without enzyme after which 10 μl of an esterase stock solution (37 U/ml in deuterated phosphate buffer) was added in the top of the tube. The sample was mixed and returned to the spectrometer. A series of thermal 1D ^1H NMR experiments were recorded every 5 min for 60 min. The data were analysed with MNOVA software and measured as percentage conversion of substrate calculated to account for the amount of substrate converted over 60 min. The numbers are given in μmol/min.

[5] = acetate vs ethyl ester function

CC(=O)OCC(COC(C)=O)OC(C)=O [Tri-acetin]
Metabolic conversion, Lymphocytes (B + T cells) [1]: 0.18 µmol/h | Metabolic conversion, Prostate cancer cells PC-3 ([2]; 5 million lysed cells): 1.8 µmol/h | Metabolic conversion, Breast cancer cells MCF-7 [3]: 0.27 µmol/h | k [4]: 0.02 µmol/min

CCOC(=O)CC(C)OC(C)=O (centres unmarked) [ethyl 3-acetoxy butanoate]
Lymphocytes (B + T cells) Ratio acetate/ethyl [1, 5]: 1 | Prostate cancer cells PC-3 Ratio acetate/ethyl ([2]; 5 million lysed cells, acetate vs ethyl ester function): 9 | Breast cancer cells MCF-7 Ratio acetate/ethyl [3, 5]: 2 | k (μmol/min), acetate ester ([4]; hydrolysis of the acetate ester function, 60 min): 0 µmol/min | k (μmol/min), ethyl ester ([4]; hydrolysis of the ethyl ester function, 60 min): 0.08 µmol/min

CC(=O)OCc1ccccc1 [Benzyl acetate]
Metabolic conversion, Lymphocytes (B + T cells) [1]: 0.39 µmol/h | Metabolic conversion, Prostate cancer cells PC-3 ([2]; 5 million lysed cells): 22 µmol/h | metabolic conversion in prostate cancer cells compared to lymphocytes ([2]; cell number basis, positive contrast): ~60 times | Metabolic conversion, Breast cancer cells MCF-7 [3]: 1.05 µmol/h | k [4]: 0.07 µmol/min
